Reference: US9422235B2, “Sulfonamide derivatives with therapeutic indications” (Pharmos Corporation, priority 2006, dated 2016)
Where two headings read alike, the source gives them in different places.

Assays:
human CB2 receptor = human CB2 receptor (Homo sapiens (Human), UniProt P34972); assay: [35S]GTPγS-binding assay, functional activity at the human CB2 receptor; format: biochemical
Description: Functional activity of compounds of the invention toward the cannabinoid receptors was determined by stimulation of [^35S]-GTPγS binding using membranes from HEK-293 cells expressing the hCB1 receptor and membranes expressing the hCB2 receptor derived from either Sf9 (PerkinElmer) or from HEK-293 cells. Activities were compared to that of the known cannabinoid full agonist CP55940 (Alexis). The purpose of this experiment is to determine the potency of the compounds of the invention as agonists or antagonists toward each of the receptor tested.
[^35]-GTPγS binding reactions were performed at 30° C. in 96-well plates containing 5-10 μg membrane protein suspended in 0.1 ml binding buffer (20 mM HEPES-NaOH, pH 7.4, 5 mM MgCl2, 100 mM NaCt, 0.2% (w/v) bovine serum albumin) supplemented with 50 μM GDP and 0.06 nM-10 μM of the compound being tested. Binding was initiated by the addition of [^35S]GTPγS (0.3 nM final concentration). Incubations were performed for 90 minutes and were terminated by filtration on GF/C filter plates (PerkinElmer). Filters were washed ten times with ice-cold wash buffer (20 mM HEPES-NaOH, pH 7.4, 10 mM sodium pyrophosphate). Non-specific binding was measured in the presence of 15 μM GTPγS.
Assays were performed in duplicates. Data was analyzed by plotting on the X axis the log concentration against percent of specific [^35S]GTPγS binding out of basal [^35S]GTPγS binding on the Y axis, non-linear regression is then performed using GraphPad Prism, version 3.0 (GraphPad, San Diego, Calif.) to calculate the EC50 and Emax of the compound. The EC50 value represents the concentration at which there is 50% [^35S]GTPγS binding and the Emax value the upper plateau of the curve.
CP55940 is a full agonist of the human and rat CB2 receptors. […] Full or partial agonism at the receptor was determined relative to the Emax value of CP55940.

Male Sprague Dawley rats [1] = assay: Chronic inflammatory pain, intra-articular CFA in knee, weight bearing; format: in vivo, rat
Male Sprague Dawley rats [2] = assay: Thermal analgesic activity in CFA-induced inflammatory acute pain (Plantar test); format: in vivo, rat; settings: one hour post daily administration, third day of treatment
Description: The thermal analgesic effect induced by compounds of the present invention on inflammatory acute pain was assessed. Inflammatory pain and paw edema were induced by intraplantar injection of 50% Complete Freund's Adjuvant (CFA) suspension in the animal hind paw.
Male Sprague Dawley rats (average body weight 200 g, Harlan, Israel) were transiently sedated by placement on dry ice for the duration of the injections. Rats were injected subcutaneously, in the subplantar region of one (right) paw with 0.15 ml of 50% w/v CFA in sterile saline. […] Test compounds were administered i.p. at initial single dose of 10-60 mg/kg (depending on the test compound), and volume dose of 5 ml/kg, 24 hours post CFA injection. Vehicle and Celecoxib treated animals were used as controls. Each treatment group comprised at least six animals.
Prior to, 48 hours post induction of inflammatory pain and one hour after daily drug administration, the animals reaction to pain stimuli was tested by thermal stimulus. The thermal analgesia was assessed using a Plantar test (Ugo Basile). At the end of the study, animals were euthanized.
Results, expressed as percent of baseline value (% reversal) or withdrawal latency, are depicted in FIGS. 9 and 10. […] Results are expressed as mean±SEM for each treatment group and the differences among those groups are analyzed by T-test. […]

female BALB/c mice = assay: Dextran Sulfate Salt (DSS)-induced acute colitis; format: in vivo, mouse; settings: for % Survival / Clinical score / Percentage change in body weight: i.p.
Source text: In order to test the activity of compounds of the invention in an animal model of inflammatory bowel disease, female BALB/c mice 9-12 week old (Harlan, Israel) were used for Dextran Sulfate Salt (DSS)-induced acute colitis studies. Mice (ten per treatment group) were provided with a solution of tap water containing 5% DSS (MW. 36000-50000; MP Biomedicals, LLC) ad libitum over an 8 day period. The DSS solution was replenished every other day and switched to tap water at day 8. Body weight was measured daily. The clinical scores combined both macroscopic (diarrhea, body weight, mortality) as well as microscopic (pathological) scores. Diarrhea score in the studies for each animal represented the daily summary of stool consistency (scored as: 0, normal; 1, soft but still formed; 2, very soft; 3, diarrhea) and the presence of blood in stool (scored: 0, None; 1, visible blood traces in stool; 2, signs of blood; 3, rectal bleeding). At the end of experiment animals were euthanized and their colons are examined for signs of pathological damage. The pathological scores, colon length and weight were determined from the cecum to the anus (scored: 0, normal; 1, slight inflammation; 2, moderate inflammation and/or edema; 3, heavy inflammation and/or ulceration and/or edema).
Two compounds were tested in DSS-induced colitis in mice, compounds 4 and 58. […] Results are expressed as mean ± SEM for each treatment group and the differences among those groups are analyzed by T-test. Two crosshatches indicate a p value below 0.01 and three indicate a p value below 0.001. Asterisks denote statistical significant weight loss relative to animal weight in the beginning of the experiment.
Alternatively, compound 58 (30 mg/kg) was administered orally from the first day of DSS administration (day 1) until the end of the experiment (day 10).

[3] = read-out: % Activity (relative to CP55,940)
[4] = Cell line C2-4, Emax of compound divided by Emax of CP55940, read-out: % Activity (relative to CP55,940)
[5] = Cell line C2-4, upper plateau of [35S]GTPγS binding curve
[6] = Cell line C2-4, Emax of compound divided by Emax of CP55940
[7] = Cell line C2-4, upper plateau of [35S]GTPγS binding curve, read-out: Emax (%)

human CB2 receptor, sequence (P34972 whole entry): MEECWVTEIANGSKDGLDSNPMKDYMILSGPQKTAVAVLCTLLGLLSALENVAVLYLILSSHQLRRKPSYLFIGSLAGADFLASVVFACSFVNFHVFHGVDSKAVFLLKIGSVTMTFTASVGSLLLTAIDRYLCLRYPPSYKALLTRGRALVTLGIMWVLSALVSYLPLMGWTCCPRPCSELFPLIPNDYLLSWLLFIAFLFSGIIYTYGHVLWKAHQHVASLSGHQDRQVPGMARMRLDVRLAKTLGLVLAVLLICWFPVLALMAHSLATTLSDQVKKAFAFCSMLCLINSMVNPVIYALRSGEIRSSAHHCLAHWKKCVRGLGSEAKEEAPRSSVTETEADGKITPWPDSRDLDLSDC

Row | Compound | Emax (human CB2 receptor) | Emax (human CB2 receptor; [3]) | Emax (human CB2 receptor; [4]) | Emax (%) (human CB2 receptor; [5]) | further results
1 | CC(C)(NS(=O)(=O)c1ccc(NC2CC3CCC2C3)cc1C(F)(F)F)C1CC1 (stereo not drawn) [Compound 74, 4-(Bicyclo[2.2.1]hept-2-ylamino)-N-(1-cyclopropyl-1-methyl-ethyl)-2-trifluoromethyl-benzenesulfonamide] | 30% | 45% | – | – | –
2 | O=S(=O)(NCC1CCOCC1)c1ccc(Nc2ccc(Cl)cc2Cl)cc1C(F)(F)F [Compound 35, 4-(2,4-Dichloro-phenylamino)-N-(tetrahydro-pyran-4-ylmethyl)-2-trifluoromethyl-benzenesulfonamide] | 19% | 35% | – | – | reversal of the CFA induced hypersensitivity (weight bearing) (Male Sprague Dawley rats [1]; 15 mg/kg, b.i.d, three days of administration): significant reversal
3 | O=S(=O)(NCC1CC1)c1ccc(NC2CCCCCCC2)cc1C(F)(F)F [Compound 88, 4-Cyclooctylamino-N-cyclopropylmethyl-2-trifluoromethyl-benzenesulfonamide] | – | – | 9.8% | 5% | –
4 | CCCCCCC(C)(C)c1ccc([C@@H]2C[C@H](O)CC[C@H]2CCCO)c(O)c1 [CP55940, reference compound] | 50 to 70% | – | – | – | –
5 | O=S(=O)(NCC1CC1)c1ccc(NN2CCCCCC2)cc1C(F)(F)F [Compound 105, 4-(Azepan-1-ylamino)-N-cyclopropylmethyl-2-trifluoromethyl-benzenesulfonamide] | 34% | 43% | – | – | –
6 | O=S(=O)(NCC1CC1)c1ccc(Nc2ccc(Cl)cc2Cl)cc1C(F)(F)F [Compound 3, N-Cyclopropylmethyl-4-(2,4-dichloro-phenylamino)-2-trifluoromethyl-benzenesulfonamide] | 30% | 46% | – | – | –
7 | N-Cyclopropylmethyl-4-(piperidin-1-ylamino)-2-trifluoromethyl-benzenesulfonamide [Compound 94] | – | – | – | 20% | % Activity (relative to CP55,940) (human CB2 receptor; [6]): 30%; reversal of thermal pain threshold (percent of baseline value, % reversal) (Male Sprague Dawley rats [2]; 60 mg/kg i.p.): reversed the pain threshold
8 | O=S(=O)(NCC1CCOCC1)c1ccc(NC2CC3CCC2C3)cc1C(F)(F)F (stereo not drawn) [Compound 41, 4-(Bicyclo[2.2.1]hept-2-ylamino)-N-(tetrahydro-pyran-4-ylmethyl)-2-trifluoromethyl-benzenesulfonamide] | – | – | 36% | – | Emax (human CB2 receptor; [7]): 26%; analgesic effect (% reversal) (Male Sprague Dawley rats [1]; 15 mg/kg b.i.d., day 1 and 2 post administration): 30%
9 | CC(C)(NS(=O)(=O)c1ccc(NC2CCCCC2)cc1C(F)(F)F)C1CC1 [Compound 108, 4-Cyclohexylamino-N-(1-cyclopropyl-1-methyl-ethyl)-2-trifluoromethyl-benzenesulfonamide] | – | – | 49.3% | 39% | –
10 | O=S(=O)(NCC1CC1)c1ccc(NC2CCCCCC2)cc1C(F)(F)F [Compound 87, 4-Cycloheptylamino-N-cyclopropylmethyl-2-trifluoromethyl-benzenesulfonamide] | 21% | 29% | – | – | –
11 | COc1ccc(Nc2ccc(S(=O)(=O)NCC3CC3)c(C(F)(F)F)c2)c(OC)c1 [Compound 44, N-cyclopropylmethyl-4-(2,4-dimethoxy-phenylamino)-2-trifluoromethyl-benzenesulfonamide] | 5% | 9.8% | – | – | –
12 | O=S(=O)(NCC1CCCO1)c1ccc(NC2CC3CCC2C3)cc1C(F)(F)F (stereo not drawn) [Compound 26, 4-(Bicyclo[2.2.1]hept-2-ylamino)-N-(tetrahydro-furan-2-ylmethyl)-2-trifluoromethyl-benzenesulfonamide] | – | – | 35% | – | Emax (human CB2 receptor; [7]): 19%
13 | 4-(Bicyclo[2.2.1]hept-2-ylamino)-N-cyclopropylmethyl-2-trifluoromethyl-benzenesulfonamide [Compound 58] | – | – | – | 29% | % Activity (relative to CP55,940) (human CB2 receptor; [6]): 40%; % Survival (female BALB/c mice; 10 mg/kg): 100%; Clinical score (female BALB/c mice; 10 mg/kg): 4.33 ± 0.22; Percentage change in body weight (female BALB/c mice; 10 mg/kg): −12.9 ± 2.6 %; mortality (female BALB/c mice; 30 mg/kg orally, day 1 to day 10): not observed; clinical score over time (female BALB/c mice; 30 mg/kg orally, day 1 to day 10, from day 8 until end of experiment): statistical significant amelioration; pathological score (female BALB/c mice; 30 mg/kg orally, day 1 to day 10, not statistically significant versus vehicle): 1.9±0.5; % Survival (female BALB/c mice; 30 mg/kg): 100%; Clinical score (female BALB/c mice; 30 mg/kg): 4.58 ± 0.2; Percentage change in body weight (female BALB/c mice; 30 mg/kg): −13.9 ± 2.3 %; efficacy in DSS-induced colitis (weight loss, clinical signs or gross pathology) (female BALB/c mice; administered intraperitoneally): modest efficacy; reversal of thermal pain threshold (withdrawal latency) (Male Sprague Dawley rats [2]; 30 mg/kg i.p.): reversed the pain threshold
